Results: patent US20040086607A1, “Food astringency evaluating method and astringency evaluating apparatus” (SAPPORO BREWERIES LIMITED, priority 2001, published 2004)

How the values were obtained:
Assay type in all cases: binding
[1] = system: gelatin; experiment: change in frequency with gelatin sensor (quartz oscillator with gelatin immobilized on the electrode); details: catechin 2 ppm and 6 ppm; for change in frequency: gelatin sensor in distilled water, up to 4 minutes after addition, quercetin and epicatechin 20 μM
Procedure: First, the gold electrode (diameter: 5 mm) of a sensor equipped with a quartz oscillator (Fragrance Sensor SF-105, product of Sogo Pharmaceutical Co., Ltd.) was immersed in 20 ml of a 1.2 N sodium hydroxide solution for 20 minutes, after which the electrode surface was washed with 500 ml of distilled water and immersed in 1.2 N dilute hydrochloric acid for 2 minutes. The electrode surface was then washed with distilled water and immersed in 12 N concentrated hydrochloric acid for 5 minutes, and the electrode was subsequently washed thoroughly with distilled water and dried at 100° C. for 20 minutes to obtain a quartz oscillator having hydroxyl groups arranged on the electrode surface.
After air-cooling the quartz oscillator, it was immersed in 0.3 ml of a 2% 3-aminopropyltriethoxysilane/acetone solution and allowed to stand at room temperature for 20 hours to introduce amino groups on to the electrode surface. The quartz oscillator was then subjected to ultrasonic washing treatment in 20 ml of acetone and dried at 70° C. for 90 minutes.
Next, 30 μl of 2.5% glutaraldehyde/20 mM phosphate buffer solution (pH 7.0) was placed on the amino group-introduced electrode surface, and the electrode was allowed to stand at room temperature for 2 hours. After then washing the electrode surface in 20 ml of 20 mM phosphate buffer solution and 20 ml of distilled water, it was mounted on an aqueous phase measuring sensor. […]
First, the sensor element measuring section of the gelatin sensor was immersed for 30 seconds in 100 ml of distilled water, and stabilization of frequency was confirmed. Next, 0.1 ml of a catechin/ethanol solution was added to the distilled water, and the change in frequency was measured up to 4 minutes after addition. […]
The change in frequency was also measured in the same manner as above except that quercetin/ethanol solutions and epicatechin/ethanol solutions were used instead of the catechin/ethanol solutions, and the astringency component concentration after addition to the distilled water was adjusted to 20 μM. […]

[2] = system: mouse proline-rich peptide; experiment: change in frequency with lipid membrane sensor, complex with mouse proline-rich peptide; details: FIG. 9
Text: (§1) The electrode of a sensor equipped with a quartz oscillator (Fragrance Sensor SF-105, product of Sogo Pharmaceutical Co., Ltd.) was coated with a lipid membrane composed of dioctadecylammonium polystyrenesulfonic acid to obtain a lipid membrane sensor.
The obtained astringency evaluating apparatus was used for measurement of the change in frequency corresponding to adsorption on to the lipid membrane by complex between proline-rich peptide and tannic acid.
First, the sensor element measuring section of the lipid membrane sensor was immersed in a 25 mM acetate buffer solution (pH 4.3) dissolving 50, 100 or 150 mg/l of mouse proline-rich peptide (Sawady Technologies), and stabilization of frequency was confirmed. Next, 0.1 ml of tannic acid was added to each mouse proline-rich peptide/acetate buffer solution, and the change in frequency was measured up to 5 minutes after addition. For the measurement, the tannic acid concentration of the buffer solution immediately after tannic acid addition was 8 mg/l.

[3] = target: T1, bovine serum albumin (Bos taurus, UniProt P02769); experiment: change in frequency with lipid membrane sensor, complex with bovine serum albumin; details: bovine serum albumin in acetate buffer, 4 minutes after adding, tannic acid 8 mg/l, polyphenone 100 50 mg/l, FIG. 11
T1 construct: purchased Wako Junyaku Kogyo
Procedure: as §1
The change in frequency was also measured in the same manner as above except that gelatin (Aldrich Chemical Company, Inc.) or bovine serum albumin (Wako Junyaku Kogyo) was used instead of the mouse proline-rich peptide, and tannic acid (concentration after addition to buffer solution [hereunder referred to simply as “concentration in buffer solution”]: 8 mg/l, and polyphenone 100 (concentration in buffer solution: 50 mg/l) were added. As comparative tests, the same measurement was conducted using sucrose (sweet component, concentration in buffer solution: 1.7 mM), quinine sulfate (bitter component, concentration in buffer solution: 0.27 μM), tartaric acid (acidic component, concentration in buffer solution: 14 μM), NaCl (salty component, concentration in buffer solution: 1.1 mM) and glutamic acid (acidic/savory component, concentration in buffer solution: 30 μM). Also, the change in frequency during 4 minutes after adding different components using bovine serum albumin is shown in FIG. 11.

[4] = system: gelatin; experiment: change in frequency with lipid membrane sensor, complex with gelatin
Procedure: as §1
The change in frequency was also measured in the same manner as above except that gelatin (Aldrich Chemical Company, Inc.) or bovine serum albumin (Wako Junyaku Kogyo) was used instead of the mouse proline-rich peptide, and tannic acid (concentration after addition to buffer solution [hereunder referred to simply as “concentration in buffer solution”]: 8 mg/l, and polyphenone 100 (concentration in buffer solution: 50 mg/l) were added. As comparative tests, the same measurement was conducted using sucrose (sweet component, concentration in buffer solution: 1.7 mM), quinine sulfate (bitter component, concentration in buffer solution: 0.27 μM), tartaric acid (acidic component, concentration in buffer solution: 14 μM), NaCl (salty component, concentration in buffer solution: 1.1 mM) and glutamic acid (acidic/savory component, concentration in buffer solution: 30 μM). Also, the change in frequency during 4 minutes after adding different components using bovine serum albumin is shown in FIG. 11. […]

T1 sequence (P02769 25-607): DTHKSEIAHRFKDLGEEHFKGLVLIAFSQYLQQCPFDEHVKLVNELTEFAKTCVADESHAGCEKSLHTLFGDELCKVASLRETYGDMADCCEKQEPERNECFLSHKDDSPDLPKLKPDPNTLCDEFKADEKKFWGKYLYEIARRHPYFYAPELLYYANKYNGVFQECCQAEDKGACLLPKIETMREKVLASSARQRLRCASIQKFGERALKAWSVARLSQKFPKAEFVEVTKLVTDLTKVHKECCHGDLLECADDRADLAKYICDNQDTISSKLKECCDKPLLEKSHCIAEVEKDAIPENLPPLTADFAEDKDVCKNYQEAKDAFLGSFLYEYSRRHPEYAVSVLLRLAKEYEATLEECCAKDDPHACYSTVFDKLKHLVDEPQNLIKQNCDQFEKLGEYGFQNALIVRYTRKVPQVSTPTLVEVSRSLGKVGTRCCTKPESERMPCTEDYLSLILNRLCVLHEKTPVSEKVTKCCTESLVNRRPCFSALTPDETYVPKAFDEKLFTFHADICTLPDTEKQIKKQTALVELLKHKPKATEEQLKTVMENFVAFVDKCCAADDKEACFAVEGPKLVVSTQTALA

Molecule	change in frequency [1]	change in frequency ([2]; 25 mM acetate buffer pH 4.3, mouse proline-rich peptide 50, 100 or 150 mg/l, tannic acid 8 mg/l, up to 5 minutes)	change in frequency versus concentration ([2]; mouse proline-rich peptide)	change in frequency [3]	correlation between tannic acid concentration and change in frequency ([4]; 10 mg/l gelatin/25 mM acetate buffer solution, FIG. 12)	change in frequency ([4]; gelatin in acetate buffer, 4 minutes after adding, tannic acid 8 mg/l, polyphenone 100 50 mg/l, FIG. 10)	change in frequency versus catechin concentration ([1]; gelatin sensor, FIG. 5)
O=c1c(O)c(-c2ccc(O)c(O)c2)oc2cc(O)cc(O)c12 [quercetin]	notable change in frequency						
O=C(OC[C@H]1O[C@@H](OC(=O)c2cc(O)c(O)c(OC(=O)c3cc(O)c(O)c(O)c3)c2)[C@H](OC(=O)c2cc(O)c(O)c(OC(=O)c3cc(O)c(O)c(O)c3)c2)[C@@H](OC(=O)c2cc(O)c(O)c(OC(=O)c3cc(O)c(O)c(O)c3)c2)[C@@H]1OC(=O)c1cc(O)c(O)c(OC(=O)c2cc(O)c(O)c(O)c2)c1)c1cc(O)c(O)c(OC(=O)c2cc(O)c(O)c(O)c2)c1 [tannic acid]		notable change in frequency	greater with increasing tannic acid concentration	notable change in frequency	adequately satisfactory correlation	notable change in frequency	
catechin	notable change in frequency						greater with increasing catechin concentration
